Like-named read-outs stand apart in the source and are kept apart here.
Columns and labels:
[1] = target: Cys242 in human PIK3CA (157-299) (Homo sapiens (Human), UniProt P42336); experiment: Covalent modification assay using MALDI-TOF MS; assay type: biochemical; settings: 4 h reaction time point
Outline: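 Covalent adduct formation was read by linear-mode MALDI-TOF with sinapinic acid matrix, reported as modified-protein peak height divided by total protein peak heights. Reactions held PIK3CA (157-299) at 1 or 3.33 μM in HEPES/NaCl/MgCl2 buffer, pH 7.3, sampled after 15 min to 4 h at room temperature.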

pAKT in BT474 cells = experiment: Cell-based pAKT HTRF assay in BT474 cells; settings: BT474 cells, 4 hr incubation, read-out: pAKT inhibition IC50 in BT474 cells
Outline: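 The HTRF signal (excitation 320 nm, emission 615 nm) came from d2/Eu Cryptate antibodies added to lysates and incubated 4–24 h at room temperature. Those lysates were taken from cells treated for 4 hr with compound, top concentration 3 μM, in 0.25% DMSO.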

[2] = 1 μM protein target, 1:5 protein to compound ratio (compounds 853-1279)
[3] = 3.33 μM protein target, 1:7.5 protein to compound ratio (compounds 1-852)
[4] = Homo sapiens, BT-474, Compounds 1000-1279
[5] = Homo sapiens, BT-474, Compounds 10-999

Sequence of Cys242 in human PIK3CA (157-299) (P42336 157-299): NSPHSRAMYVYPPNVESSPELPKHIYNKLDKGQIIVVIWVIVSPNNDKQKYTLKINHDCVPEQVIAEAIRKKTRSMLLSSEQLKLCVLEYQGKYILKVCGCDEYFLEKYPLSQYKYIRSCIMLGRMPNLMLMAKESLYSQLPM

SMILES | IC50 (pAKT in BT474 cells; Compounds 10-999) [nM] | % of modification [1, 3] | also measured
C=CC(=O)N1CCn2nc(-c3nc(-c4ccn(C)c(=O)c4)c4ccsc4c3-c3c(F)cc(F)cc3OCCOC)cc2C1C (stereo not shown) [Compound 986] | < 100 |  | % of modification [1, 2]: A (percent of modification of PIK3CA protein ≥75%)
C=CC(=O)N1CC(n2cc(-c3nc(-c4ccc5c(c4)CNC(=O)C5)c4ccsc4c3-c3ccc(F)cc3OCCOC)cn2)C1 [Compound 72] | < 100 | A (percent of modification of PIK3CA protein ≥75%) | 
C=CC(=O)N1CC(n2cc(-c3nc(N4CCC5(CC4)CNC(=O)C5)c4ccsc4c3-c3ccc(F)cc3OCCOC)cn2)C1 [Compound 150] | 100 to 1000 | A (percent of modification of PIK3CA protein ≥75%) | 
C=CC(=O)N1CCc2nc(-c3nc(-c4cnc5c(c4)CN(C)CC5)c4ccsc4c3-c3c(F)cc(F)cc3OCCOC)sc2C1 [Compound 365] | < 100 | A (percent of modification of PIK3CA protein ≥75%) | 
C=CC(=O)N1Cc2cc(-c3nc(-c4ccc5[nH]cnc5c4)c4ccsc4c3-c3c(F)cc(F)cc3OCCOC)nn2C[C@H]1C [Compound 720] | < 100 | A (percent of modification of PIK3CA protein ≥75%) | 
C=CC(=O)N1CCn2nc(-c3nc(N4CC5(CC(C(=O)NC)C5)C4)c4ccsc4c3-c3c(F)cc(F)cc3OCCOC)cc2[C@H]1C [Compound 1012, 2-((S)-6-((R)-5-acryloyl-4-methyl-4,5,6,7-tetrahydropyrazolo[1,5-a]pyrazin-2-yl)-7-(2,4-difluoro-6-(2-methoxyethoxy)phenyl)thieno[3,2-c]pyridin-4-yl)-N-methyl-2-azaspiro[3.3]heptane-6-carboxamide] |  |  | % of modification [1, 2]: A (percent of modification of PIK3CA protein ≥75%); IC50 (pAKT in BT474 cells; [4]): < 100 nM
C=CC(=O)N1Cc2cc(-c3nc(-c4cn(C)cn4)c4ccsc4c3-c3c(F)cc(F)cc3OCC(C)O)nn2C(C)C1 (stereo not shown) [Compound 639] | < 100 | A (percent of modification of PIK3CA protein ≥75%) | 
C=CC(=O)N1CCn2nc(-c3nc(-c4ccc(CC(=O)N(C)C)cc4)c4ccsc4c3-c3c(F)cc(F)cc3OCCOC)cc2C1C (stereo not shown) [Compound 1090] |  |  | % of modification [1, 2]: A (percent of modification of PIK3CA protein ≥75%); IC50 (pAKT in BT474 cells; Compounds 1000-1279): < 100 nM
C=C(F)C(=O)N1CCn2nc(-c3nc(-c4cnc5c(c4)CN(C)CC5)c4ccsc4c3-c3ccc(F)cc3OC(C)C)cc2C1 [Compound 306] | < 100 | B (50%<percent of modification <75%) | 
C=CC(=O)N1CCn2nc(-c3nc(-c4ccc5c(c4)CCC5N(C)C)c4ccsc4c3-c3c(F)cc(F)cc3OCCOC)cc2C1C (stereo not shown) [Compound 1155] |  |  | % of modification [1, 2]: A (percent of modification of PIK3CA protein ≥75%); IC50 (pAKT in BT474 cells; Compounds 1000-1279): < 100 nM
C=CC(=O)N1CCc2nc(-c3nc(-c4ccc5c(c4)CCN(C)C5)c4ccsc4c3-c3ccc(F)cc3OCCOC)sc2C1 [Compound 107] | < 100 | A (percent of modification of PIK3CA protein ≥75%) | 
C=CC(=O)N1Cc2cc(-c3nc(-c4ccc5c(c4)CNC5=O)c4ccsc4c3-c3c(F)cc(F)cc3OC)nn2C(C)C1 (stereo not shown) [Compound 910] | 100 to 1000 |  | % of modification [1, 2]: B (50%<percent of modification <75%)
C=CC(=O)N1CCn2nc(-c3nc(-c4ccc5cnncc5c4)c4ccsc4c3-c3c(F)cc(F)cc3OCCO)cc2[C@@H]1C [Compound 672] | < 100 | A (percent of modification of PIK3CA protein ≥75%) | 
C=CC(=O)N1Cc2cc(-c3nc(-c4ccc5nncn5c4)c4ccsc4c3-c3c(F)cc(F)cc3OCCOC)nn2[C@@H](C)C1 [Compound 693] | < 100 | A (percent of modification of PIK3CA protein ≥75%) | 
C=CC(=O)N1Cc2cc(-c3nc(-c4cnn(C)c4)c4ccsc4c3-c3c(F)cc(F)cc3OC[C@@H](C)O)nn2C[C@H]1C [Compound 724] | < 100 | A (percent of modification of PIK3CA protein ≥75%) | 
C=CC(=O)N1Cc2cc(-c3nc(-c4cnn(C)c4)c4ccsc4c3-c3c(F)cc(F)cc3OCCO)nn2CC1C (stereo not shown) [Compound 534] | < 100 | A (percent of modification of PIK3CA protein ≥75%) | 
C=CC(=O)N1CC(n2cc(-c3nc(N4CCC5(CC4)CNC5)c4ccsc4c3-c3ccc(F)cc3OCCOC)cn2)C1 [Compound 98] | 1000 to 3000 | A (percent of modification of PIK3CA protein ≥75%) | 
C=CC(=O)N1Cc2cc(-c3nc(-c4ccc(P(C)(C)=O)cc4)c4ccsc4c3-c3c(F)cc(F)cc3OCCOC)nn2C[C@H]1C [Compound 800, 1-[(6R)-2-[7-[2,4-difluoro-6-(2-methoxyethoxy)phenyl]-4-(4-dimethylphosphorylphenyl)thieno[3,2-c]pyridin-6-yl]-6-methyl-6,7-dihydro-4H-pyrazolo[1,5-a]pyrazin-5-yl]prop-2-en-1-one] |  | A (percent of modification of PIK3CA protein ≥75%) | IC50 (pAKT in BT474 cells; [5]): < 100 nM
C=CC(=O)N1CCn2nc(-c3nc(-c4cnn(C)c4)ccc3-c3ccc(F)cc3OCCOC)cc2C1 [Compound 322, 1-[2-[3-[4-fluoro-2-(2-methoxyethoxy)phenyl]-6-(1-methylpyrazol-4-yl)-2-pyridyl]-6,7-dihydro-4H-pyrazolo[1,5-a]pyrazin-5-yl]prop-2-en-1-one] |  | C (25%≤percent of modification <50%) | IC50 (pAKT in BT474 cells; [5]): > 3000 nM
C=CC(=O)N1Cc2cc(-c3nc(-c4ccc5c(c4)CCN(C)C5)c4ccsc4c3-c3c(F)cc(F)cc3OC(C)C)nn2C[C@H]1C [Compound 478, 1-((R)-2-((R)-7-(2,4-difluoro-6-isopropoxyphenyl)-4-(2-methyl-1,2,3,4-tetrahydroisoquinolin-6-yl)thieno[3,2-c]pyridin-6-yl)-6-methyl-6,7-dihydropyrazolo[1,5-a]pyrazin-5(4H)-yl)prop-2-en-1-one] | 100 to 1000 | D (percent of modification <25%) | 
C=CC(=O)N1CCc2nc(-c3nc(-c4ccc5c(c4)CCNC5)c4ccsc4c3-c3ccc(F)cc3OCCOC)n(C)c2C1 [Compound 100] | 100 to 1000 | A (percent of modification of PIK3CA protein ≥75%) | 
C=CC(=O)N1CCC(n2cc(-c3nc(-c4ccc5c(c4)CCNC5)c4ccsc4c3-c3ccc(F)cc3OCCOC)ccc2=O)CC1 [Compound 181] | 100 to 1000 | A (percent of modification of PIK3CA protein ≥75%) | 
C=CC(=O)N1Cc2cc(-c3nc(-c4ccc5c(c4)CN(C)C5=O)c4ccsc4c3-c3c(F)cc(F)cc3OCCOC)nn2CC1C (stereo not shown) [Compound 474] | < 100 | A (percent of modification of PIK3CA protein ≥75%) | 
C=CC(=O)N1CCn2nc(-c3nc(-c4ccnc(N)c4)c4ccsc4c3-c3ccc(F)cc3OCCOC)nc2C1 [Compound 186] | < 100 | A (percent of modification of PIK3CA protein ≥75%) | 
C=CC(=O)N1Cc2cc(-c3nc(C45CC(C(=O)NC)(C4)C5)c4ccsc4c3-c3c(F)cc(F)cc3OCCOC)nn2C[C@H]1C [Compound 1071, 3-((S)-6-((R)-5-acryloyl-6-methyl-4,5,6,7-tetrahydropyrazolo[1,5-a]pyrazin-2-yl)-7-(2,4-difluoro-6-(2-methoxyethoxy)phenyl)thieno[3,2-c]pyridin-4-yl)-N-methylbicyclo[1.1.1]pentane-1-carboxamide] |  |  | % of modification [1, 2]: B (50%<percent of modification <75%); IC50 (pAKT in BT474 cells; [4]): < 100 nM
C=CC(=O)N1CC(n2cc(-c3nc(C4CCC5(CC4)CNC5)c4ccsc4c3-c3ccc(F)cc3OCCOC)cn2)C1 [Compound 147] | 1000 to 3000 | A (percent of modification of PIK3CA protein ≥75%) | 
C=CC(=O)N1CCn2nc(-c3nc(C4CCN(C(C)C)CC4)c4ccsc4c3-c3ccc(F)cc3OC(C)C)cc2C1 [Compound 240] | < 100 | A (percent of modification of PIK3CA protein ≥75%) | 
C=CC(=O)N1CCc2nc(-c3nc(-c4cnc5c(c4)CCN(C)C5)c4ccsc4c3-c3c(F)cc(F)cc3OCCOC)sc2C1 [Compound 521] | < 100 | A (percent of modification of PIK3CA protein ≥75%) | 
C=CC(=O)N1CCc2nc(-c3nc(-c4ccc(C(C)(C)N)cc4)c4ccsc4c3-c3c(F)cc(F)cc3OCCOC)sc2C1 [Compound 443] | 100 to 1000 | A (percent of modification of PIK3CA protein ≥75%) | 

Reference: patent US20250230138A1, “COMPOUNDS HAVING A T-STRUCTURE FORMED BY AT LEAST FOUR CYCLES FOR USE IN THE TREATMENT OF CANCER AND OTHER INDICATIONS” (TheRas, Inc., priority 2022, published 2025)
